Where “and” joins values, the source holds several entries; their conditions need not be identical. Equal values may be shown once. Toxic doses and inconclusive results are not listed. How the source made its calls: active means survival T/C of 150% or more; inactive means T/C below 125% in these data.
Tested on: P388 leukemia ip, CD2F1 mice, survival T/C
Assay: NCI In Vivo Anticancer Drug Screen. Data for tumor model P388 Leukemia (intraperitoneal) in CD2F1 (CDF1) mice
Conditions: endpoint: median survival time, higher = longer survival
Summary of the method: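 Mice carrying the transplanted tumor received test compound or vehicle. Survival was recorded in each group, and the value is the treated-group measurement divided by that of the vehicle-treated control group.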

[1] = dose: 60.0 mg/kg/injection, schedule: Q01DX005 (ip), vehicle: saline with Tween-80
[2] = dose: 120.0 mg/kg/injection, schedule: Q01DX005 (ip), vehicle: saline with Tween-80
[3] = dose: 12.5 mg/kg/injection, schedule: Q01DX009 (ip), vehicle: saline
[4] = dose: 25.0 mg/kg/injection, schedule: Q01DX009 (ip), vehicle: saline
[5] = dose: 50.0 mg/kg/injection, schedule: Q01DX009 (ip), vehicle: saline
[6] = dose: 100.0 mg/kg/injection, schedule: Q01DX009 (ip), vehicle: saline
[7] = dose: 50.0 mg/kg/injection, schedule: Q01DX005 (ip), vehicle: Klucel (hydroxypropylcellulose) (HPC)
[8] = dose: 100.0 mg/kg/injection, schedule: Q01DX005 (ip), vehicle: Klucel (hydroxypropylcellulose) (HPC)
[9] = dose: 200.0 mg/kg/injection, schedule: Q01DX005 (ip), vehicle: Klucel (hydroxypropylcellulose) (HPC)
[10] = dose: 6.25 mg/kg/injection, schedule: Q01DX009 (ip), vehicle: saline with Tween-80
[11] = dose: 12.5 mg/kg/injection, schedule: Q01DX009 (ip), vehicle: saline with Tween-80
[12] = dose: 25.0 mg/kg/injection, schedule: Q01DX009 (ip), vehicle: saline with Tween-80
[13] = dose: 50.0 mg/kg/injection, schedule: Q01DX009 (ip), vehicle: saline with Tween-80
[14] = dose: 100.0 mg/kg/injection, schedule: Q01DX009 (ip), vehicle: saline with Tween-80
[15] = dose: 200.0 mg/kg/injection, schedule: Q01DX009 (ip), vehicle: saline with Tween-80
[16] = dose: 200.0 mg/kg/injection, schedule: Q01DX009 (ip), vehicle: saline
[17] = dose: 50.0 mg/kg/injection, schedule: Q04DX002 (ip), vehicle: saline with Tween-80

Measured: T/C

CN1CCC23c4c5ccc(O)c4OC2C(=NN=C2CCC4(O)C6Cc7ccc(O)c8c7C4(CCN6C)C2O8)CCC3(O)C1C5 (stereo not drawn)
inactive: dose: 12.5 mg/kg/injection, schedule: Q01DX005 (ip), vehicle: saline with Tween-80 96 % of control | dose: 25.0 mg/kg/injection, schedule: Q01DX005 (ip), vehicle: saline with Tween-80 90 % of control

CN1C(=O)OC2OC(C)(c3ccc(S(=O)(=O)c4ccccc4)cc3)C(=O)CC21 (stereo not drawn)
inactive: [1] 100 % of control | [2] 97 % of control | dose: 240.0 mg/kg/injection, schedule: Q01DX005 (ip), vehicle: saline with Tween-80 90 % of control

CC(/C=C/c1ccccc1)=N\NC(=S)Nc1ccc(Cl)cc1
inactive: dose: 100.0 mg/kg/injection, schedule: Q04DX002 (ip), vehicle: Klucel (hydroxypropylcellulose) (HPC) 108 % of control | dose: 200.0 mg/kg/injection, schedule: Q04DX002 (ip), vehicle: Klucel (hydroxypropylcellulose) (HPC) 107 % of control | dose: 400.0 mg/kg/injection, schedule: Q04DX002 (ip), vehicle: Klucel (hydroxypropylcellulose) (HPC) 108 % of control

Cc1nc2nc(=S)[nH]c(N)c2nc1C
inactive: [3] 103 % of control | [4] 95 % of control | [5] 95 % of control | [6] 100 % of control

COc1cccc2c1C1c3ccccc3Sc3cccc(c31)O2 (stereo not drawn)
inactive: dose: 25.0 mg/kg/injection, schedule: Q01DX005 (ip), vehicle: Klucel (hydroxypropylcellulose) (HPC) 98 % of control | [7] 100 % of control | [8] 100 % of control | [9] 99 % of control

O/N=C/C1CCCC[N-]1.O/N=C/C1CCCC[N-]1.O/N=C/C1CCCC[N-]1.[Cu] (stereo not drawn)
inactive: dose: 1.56 mg/kg/injection, schedule: Q01DX009 (ip), vehicle: saline 87 % of control | dose: 3.12 mg/kg/injection, schedule: Q01DX009 (ip), vehicle: saline 96 % of control | dose: 6.25 mg/kg/injection, schedule: Q01DX009 (ip), vehicle: saline 87 % of control

CC1(CO)CSC(Nc2ccc(Cl)c(Cl)c2)=N1 (stereo not drawn)
inactive: dose: 3.12 mg/kg/injection, schedule: Q01DX009 (ip), vehicle: saline with Tween-80 101 % of control | [10] 100 % of control and 98 % of control | [11] 102 % of control | [12] 104 % of control | [13] 100 % of control | [14] 113 % of control | [15] 98 % of control

CCOc1cc2c(cc1OC)c[n+](C)c1c3cc(OC)c(OC)cc3ccc21
inactive: dose: 10.0 mg/kg/injection, schedule: Q01DX009 (ip), vehicle: water 122 % of control

C=C1C2(OS(=O)(=O)C(F)(F)F)CCC(C2)C1(C)C (stereo not drawn)
inactive: dose: 60.0 mg/kg/injection, schedule: Q01DX005 (ip), vehicle: saline 103 % of control | dose: 120.0 mg/kg/injection, schedule: Q01DX005 (ip), vehicle: saline 99 % of control | dose: 240.0 mg/kg/injection, schedule: Q01DX005 (ip), vehicle: saline 100 % of control

N#CC(C#N)=C(C#N)C#N
inactive: dose: 100.0 mg/kg/injection, schedule: Q04DX003 (ip), vehicle: saline with Tween-80 103 % of control | dose: 200.0 mg/kg/injection, schedule: Q04DX003 (ip), vehicle: saline with Tween-80 103 % of control

CCN(CC)CCOc1ccc2c(c1)C(=O)c1cc(OCCN(CC)CC)ccc1-2
inactive: dose: 3.13 mg/kg/injection, schedule: Q01DX009 (ip), vehicle: saline with Tween-80 109 % of control | [10] 109 % of control | [11] 109 % of control | [12] 100 % of control and 113 % of control | [4] 87 % of control | [13] 90 % of control | [5] 100 % of control | [6] 100 % of control

CC(=O)NS(=O)(=O)c1ccc(N=NC2C(=O)N(C(=O)c3ccccc3)N=C2C)cc1 (stereo not drawn)
inactive: dose: 50.0 mg/kg/injection, schedule: Q01DX001 (ip), vehicle: Klucel (hydroxypropylcellulose) (HPC) 93 % of control | dose: 100.0 mg/kg/injection, schedule: Q01DX001 (ip), vehicle: Klucel (hydroxypropylcellulose) (HPC) 95 % of control | dose: 200.0 mg/kg/injection, schedule: Q01DX001 (ip), vehicle: Klucel (hydroxypropylcellulose) (HPC) 93 % of control

CCN(CC)CCSC(=O)C(O)(c1ccccc1)c1ccccc1
inactive: dose: 2.5 mg/kg/injection, schedule: Q01DX009 (ip), vehicle: saline 108 % of control | dose: 5.0 mg/kg/injection, schedule: Q01DX009 (ip), vehicle: saline 117 % of control | dose: 10.0 mg/kg/injection, schedule: Q01DX009 (ip), vehicle: saline 101 % of control | [3] 100 % of control | dose: 20.0 mg/kg/injection, schedule: Q01DX009 (ip), vehicle: saline 90 % of control | [4] 98 % of control | dose: 40.0 mg/kg/injection, schedule: Q01DX009 (ip), vehicle: saline 101 % of control | [5] 101 % of control (2×) and 107 % of control

COC(=O)Cc1cccc2c(=O)cc(-c3cccs3)oc12
inactive: [4] 90 % of control | dose: 25.0 mg/kg/injection, schedule: Q01DX009 (ip), vehicle: suspension in saline 97 % of control | [5] 105 % of control and 92 % of control | dose: 50.0 mg/kg/injection, schedule: Q01DX009 (ip), vehicle: suspension in saline 94 % of control | [6] 117 % of control and 97 % of control | dose: 100.0 mg/kg/injection, schedule: Q01DX009 (ip), vehicle: suspension in saline 94 % of control | [16] 108 % of control | dose: 200.0 mg/kg/injection, schedule: Q01DX009 (ip), vehicle: suspension in saline 95 % of control

CC1(C)OCC(N)(CO)CO1
inactive: [5] 107 % of control | [6] 102 % of control | [16] 98 % of control | dose: 400.0 mg/kg/injection, schedule: Q01DX009 (ip), vehicle: saline 98 % of control

Fc1ccc2nc3ccccc3c(SCCNCCSc3c4ccccc4nc4ccc(F)cc34)c2c1
inactive: [1] 97 % of control | [2] 89 % of control

CNC(=O)n1c(N)nc(-c2ccccc2)c1-c1ccccc1
inactive: dose: 12.5 mg/kg/injection, schedule: Q04DX002 (ip), vehicle: saline with Tween-80 115 % of control | dose: 25.0 mg/kg/injection, schedule: Q04DX002 (ip), vehicle: saline with Tween-80 115 % of control | [17] 117 % of control

CCN(CC)Cc1c(C)[nH]c2cc(N(C)C)ccc2c1=O
inactive: dose: 50.0 mg/kg/injection, schedule: Q01DX009 (ip), vehicle: Klucel (hydroxypropylcellulose) (HPC) 96 % of control | dose: 100.0 mg/kg/injection, schedule: Q01DX009 (ip), vehicle: Klucel (hydroxypropylcellulose) (HPC) 97 % of control

Nc1ccc2nc3ccc(O)cc3nc2c1
inactive: [7] 103 % of control | [8] 108 % of control | [9] 105 % of control

COC(=O)C(N)C(C)C (stereo not drawn)
inactive: dose: 50.0 mg/kg/injection, schedule: Q01DX005 (ip), vehicle: saline 100 % of control | dose: 100.0 mg/kg/injection, schedule: Q01DX005 (ip), vehicle: saline 92 % of control

O=C1c2cc3cc4ccccc4cc3cc2C(=O)c2c(O)ccc(O)c21
inactive: [17] 90 % of control | dose: 100.0 mg/kg/injection, schedule: Q04DX002 (ip), vehicle: saline with Tween-80 91 % of control | dose: 200.0 mg/kg/injection, schedule: Q04DX002 (ip), vehicle: saline with Tween-80 99 % of control

O=S1(=O)OC(c2ccc(O)c(O)c2)(c2ccc(O)c(O)c2)c2ccccc21
inactive: [6] 100 % of control and 98 % of control

CC(Sc1ccccn1)C(=O)c1ccccc1 (stereo not drawn)
inactive: dose: 50.0 mg/kg/injection, schedule: Q01DX005 (ip), vehicle: saline with Tween-80 102 % of control | dose: 100.0 mg/kg/injection, schedule: Q01DX005 (ip), vehicle: saline with Tween-80 109 % of control | dose: 200.0 mg/kg/injection, schedule: Q01DX005 (ip), vehicle: saline with Tween-80 102 % of control

CCOC(=O)C(Cc1ccc(O)cc1)NS(=O)(=O)c1ccc(C)cc1 (stereo not drawn)
inactive: [13] 98 % of control | [14] 100 % of control | [15] 108 % of control

O=[C-]c1ccccc1[C-]=O.[I][Ni+2][I]
inactive: dose: 6.25 mg/kg/injection, schedule: Q01DX005 (ip), vehicle: saline 94 % of control | dose: 12.5 mg/kg/injection, schedule: Q01DX005 (ip), vehicle: saline 94 % of control | dose: 25.0 mg/kg/injection, schedule: Q01DX005 (ip), vehicle: saline 110 % of control

— PubChem BioAssay AID330 (DTP/NCI, 2004)
